Results reported in patent publication US9409876B2, “Bradykinin receptor antagonists and pharmaceutical compositions containing them” (DOMPE' FARMACEUTICI S.P.A., priority 2013, dated 2016).
pIC50: −log10 of the molar value. Where two headings read alike, the source gives them in different places.

Assays:
BKB1 receptors = biological target: T1, BKB1 receptors (Homo sapiens, UniProt P46663); assay: Calcium Mobilization Assay (FLIPR), IMR-90 cells, BKB1; type: cell-based; conditions: IL-1 induced IMR-90 cells, agonist desArg10-kallidin (DAKD)
T1 construct: Human (IMR-90) lung fibroblast cells expressing native BKB1 receptors; endogenous in cells; host or cells: IMR-90 human lung fibroblasts, treated with human IL-1 to up-regulate BKB1
T1 sequence (P46663 1-353): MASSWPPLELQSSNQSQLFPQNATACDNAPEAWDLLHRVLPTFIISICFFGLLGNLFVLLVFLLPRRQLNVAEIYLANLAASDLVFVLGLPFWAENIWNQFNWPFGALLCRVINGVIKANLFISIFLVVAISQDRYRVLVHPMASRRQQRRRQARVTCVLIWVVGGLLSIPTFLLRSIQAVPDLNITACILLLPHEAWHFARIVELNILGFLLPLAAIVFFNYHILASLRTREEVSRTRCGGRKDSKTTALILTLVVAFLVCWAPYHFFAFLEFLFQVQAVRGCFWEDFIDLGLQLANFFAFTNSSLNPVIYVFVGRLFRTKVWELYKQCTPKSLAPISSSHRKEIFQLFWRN
Protocol: Calcium Mobilization Assay (FLIPR)—Human (IMR-90) lung fibroblast cells expressing native BKB1 receptors were harvested by trypsinization and seeded into black wall/clear bottom 96-well plates (Costar 3904; Corning Life Sciences, Acton, Mass.) at approximately 13,000 cells/well. After 1 day incubation, cells were treated with human IL-1 (0.35 ng/ml) in 10% FBS/MEM for 2 h to up-regulate BKB1 receptors. Induced cells were loaded with fluorescent calcium indicator by incubation with 2.3 µM Fluo-4/acetoxymethyl ester (Invitrogen) at 37° C. for 1.5 h in the presence of an anion transport inhibitor (2.5 mM probenecid in 1% FBS/MEM). Extracellular dye was removed by washing with assay buffer (2.5 mM probenecid, 0.1% BSA in 20 mM HEPES/HBSS without bicarbonate or phenol red, pH 7.5) and cell plates were kept in the dark until used. Test compounds were assayed at eight concentrations in triplicate.

[1] = Pharmacokinetics after oral gavage; type: in vivo, rat; conditions: for AUC(0-inf): read-out: AUCINF_obs (converted); for half-life: read-out: T½
Protocol: In three of the rats tested in Example 56, indicated as R1, […], also the pharmacokinetic profile of compound 8 (R,R) was evaluated. The results are summarised in Tables III to IV and in FIGS. 1-4.
FIGS. 1 and 2 show the plasma concentrations, expressed in ng/ml, of compound 8 (R,R) over time after oral administration for each of the three subjects tested (FIG. 1) and as an average (FIG. 2).
In tables III and V, T1/2 means the half-time of the compound, Tmax means the time at which the concentration of the compound reaches the maximum level, Cmax means the maximal concentration, Tlast means the latest time-point at which the concentration of the compound can be measured, Clast means the concentration at the latest time-point at which the concentration of the compound can be measured, AUClast means the area under the curve at the latest time-point at which the concentration of the compound can be measured, AUCinf_obs means the area under the curve which is infinitely extrapolated and MRTlast means the mean residence time at the latest time-point at which the concentration of the compound can be measured.
In tables IV and VI, LLOQ means lower limit of quantification.

[2] = Sprague-Dawley (SD), rat, plasma, po, 10 mg/kg, oral administration, Average, read-out: plasma level
[3] = Sprague-Dawley (SD), rat, plasma, po, 10 mg/kg, oral administration, Rat2, read-out: plasma level
[4] = Sprague-Dawley (SD), rat, plasma, po, 10 mg/kg, oral administration, Rat3, read-out: plasma level
[5] = Sprague-Dawley, rat, plasma, po, 10 mg/kg, 10 mg/kg oral gavage, Average
[6] = Sprague-Dawley, rat, plasma, po, 10 mg/kg, 10 mg/kg oral gavage, Rat 1
[7] = Sprague-Dawley, rat, plasma, po, 10 mg/kg, 10 mg/kg oral gavage, Rat 2
[8] = Sprague-Dawley, rat, plasma, po, 10 mg/kg, 10 mg/kg oral gavage, Rat 3
[9] = Sprague-Dawley, rat, plasma, po, 10 mg/kg, oral administration, Average, read-out: plasma level
[10] = Sprague-Dawley, rat, plasma, po, 10 mg/kg, oral administration, Rat1, read-out: plasma level
[11] = Sprague-Dawley, rat, plasma, po, 10 mg/kg, oral administration, Rat2, read-out: plasma level
[12] = Sprague-Dawley, rat, plasma, po, 10 mg/kg, oral administration, Rat3, read-out: plasma level

Question: Which results are given for `COc1ccccc1CN(C(=O)CC(C)C)[C@@H](C(=O)NC[C@H]1CCCO1)c1ccc(C)cc1` [Compound 8 (R,R), 3-methyl-N-(2-methoxybenzyl)-N-{[(1R)-1-(4-methylphenyl)]-2-oxo-2-[(2R)-(tetrahydrofuran-2-ylmethyl)amino]ethyl}butanamide]?
Answer: pIC50 (BKB1 receptors): 6.87; Clast ([1]; 10 mg/kg oral gavage, Average): 1.1 ng/mL; Tlast ([1]; 10 mg/kg oral gavage, Average): 200.0 min; Tlast ([1]; 10 mg/kg oral gavage, Rat 1): 240 min; Tlast ([1]; 10 mg/kg oral gavage, Rat 2): 240 min; Tlast ([1]; 10 mg/kg oral gavage, Rat 3): 120 min; bioavailability ([1]; SD (Sprague-Dawley), rat, plasma, 10 mg/kg, oral vs intravenous exposure): 0.16%; Cmax ([1]; SD (Sprague-Dawley), rat, plasma, po, 10 mg/kg, oral administration): ~3 ng/mL; concentration at 15 min [1, 2]: 2.6 ng/mL; concentration at 15 min [1, 3]: 3 ng/mL; concentration at 15 min [1, 4]: 2.3 ng/mL; concentration at 30 min [1, 2]: 2 ng/mL; concentration at 30 min ([1]; Sprague-Dawley (SD), rat, plasma, po, 10 mg/kg, oral administration, Rat1, read-out: plasma level): 1.8 ng/mL; concentration at 30 min [1, 3]: 2.4 ng/mL; concentration at 30 min [1, 4]: 1.7 ng/mL; concentration at 240 min ([1]; Sprague-Dawley, rat, plasma, oral, 10 mg/kg, 10 mg/kg oral gavage, Rat 1, read-out: Clast): 1.1 ng/mL; concentration at 240 min ([1]; Sprague-Dawley, rat, plasma, oral, 10 mg/kg, 10 mg/kg oral gavage, Rat 2, read-out: Clast): 1.1 ng/mL; concentration at 120 min ([1]; Sprague-Dawley, rat, plasma, oral, 10 mg/kg, 10 mg/kg oral gavage, Rat 3, read-out: Clast): 1 ng/mL; AUC(0-t) [1, 5]: 5.63 ng·h/mL; Cmax [1, 5]: 3.4 ng/mL; MRT last [1, 5]: 1.41 h; Tmax [1, 5]: 0.138 h; AUC(0-inf) [1, 5]: 10.8 ng·h/mL; half-life [1, 5]: 3.37 h; AUC(0-t) [1, 6]: 5.67 ng·h/mL; Cmax [1, 6]: 4 ng/mL; MRT last [1, 6]: 1.69 h; Tmax [1, 6]: 0.0833 h; AUC(0-inf) [1, 6]: 14.4 ng·h/mL; half-life [1, 6]: 5.75 h; AUC(0-t) [1, 7]: 8.62 ng·h/mL; Cmax [1, 7]: 3 ng/mL; MRT last [1, 7]: 1.73 h; Tmax [1, 7]: 0.25 h; AUC(0-inf) [1, 7]: 13.7 ng·h/mL; half-life [1, 7]: 3.19 h; AUC(0-t) [1, 8]: 2.59 ng·h/mL; Cmax [1, 8]: 3.3 ng/mL; MRT last [1, 8]: 0.795 h; Tmax [1, 8]: 0.0833 h; AUC(0-inf) [1, 8]: 4.28 ng·h/mL; half-life [1, 8]: 1.17 h; concentration at 5 min [1, 9]: 3.1 ng/mL; concentration at 5 min [1, 10]: 4 ng/mL; concentration at 5 min [1, 11]: 2.2 ng/mL; concentration at 5 min [1, 12]: 3.3 ng/mL; concentration at 15 min [1, 10]: 2.7 ng/mL; concentration at 60 min [1, 9]: 1.4 ng/mL; concentration at 60 min [1, 10]: 1.3 ng/mL; concentration at 60 min [1, 11]: 2.1 ng/mL; concentration at 60 min [1, 12]: 0.8 ng/mL; concentration at 120 min ([1]; Sprague-Dawley, rat, plasma, po, 10 mg/kg, oral administration, 120 min, Average, read-out: plasma level): 1.7 ng/mL; concentration at 120 min ([1]; Sprague-Dawley, rat, plasma, po, 10 mg/kg, oral administration, 120 min, Rat1, read-out: plasma level): 1.3 ng/mL; concentration at 120 min ([1]; Sprague-Dawley, rat, plasma, po, 10 mg/kg, oral administration, 120 min, Rat2, read-out: plasma level): 2.8 ng/mL; concentration at 120 min ([1]; Sprague-Dawley, rat, plasma, po, 10 mg/kg, oral administration, 120 min, Rat3, read-out: plasma level): 1 ng/mL; concentration at 240 min ([1]; Sprague-Dawley, rat, plasma, po, 10 mg/kg, oral administration, 240 min, Average, read-out: plasma level): 1.1 ng/mL; concentration at 240 min ([1]; Sprague-Dawley, rat, plasma, po, 10 mg/kg, oral administration, 240 min, Rat1, read-out: plasma level): 1.1 ng/mL; concentration at 240 min ([1]; Sprague-Dawley, rat, plasma, po, 10 mg/kg, oral administration, 240 min, Rat2, read-out: plasma level): 1.1 ng/mL; absorption after oral administration ([1]; compared to the intravenous exposure): very poor absorption; plasma level ([1]; oral administration, 240 min, Rat3): <LLOQ; plasma level ([1]; oral administration, 480 min, Average): <LLOQ; plasma level ([1]; oral administration, 480 min, Rat1): <LLOQ; plasma level ([1]; oral administration, 480 min, Rat2): <LLOQ; plasma level ([1]; oral administration, 480 min, Rat3): <LLOQ
